Active and inactive are the calls of the source. The rule behind the calls is not given here. Square brackets hold non-standard residues; d marks the D form. Peptide text beside a SMILES is read from it. * marks the point of attachment. Dolaproine = CO[C@@H]([C@@H]1CCCN1)[C@@H](C)C(=O)O; Dil = CC[C@H](C)[C@H](NC)[C@@H](CC(=O)O)OC; X1 = C[C@@H](N*)[C@@H](O)c1ccccc1; NMeV = CN[C@H](C(=O)O)C(C)C
How the values were obtained:
[1] = Toxicity in CD-1 mouse assessed as body weight loss at 0.4 mg/kg,ip administrated upto 20 days for every 5 days; assay type: organism-based; details: in vivo, 480 h, time < 20 day
LNCaP [2] = experiment: Cytotoxicity against human LNCaP cells assessed as reduction in cell viability incubated for 72 hrs by CellTiter-96 assay; assay type: functional, cell-based
LNCaP [3] = experiment: Cytotoxicity against human LNCaP cells assessed as reduction in cell viability incubated for 72 hrs in presence of TTR by CellTiter-96 assay; assay type: functional, cell-based
DU-145 [4] = experiment: Cytotoxicity against human DU-145 cells assessed as reduction in cell viability incubated for 72 hrs by CellTiter-96 assay; assay type: functional, cell-based; details: DU-145, 72 h
DU-145 [5] = experiment: Cytotoxicity against human DU-145 cells assessed as reduction in cell viability incubated for 72 hrs in presence of TTR by CellTiter-96 assay; assay type: functional, cell-based; details: DU-145, 72 h
HeLa [6] = experiment: Cytotoxicity against human HeLa cells assessed as reduction in cell viability incubated for 72 hrs by CellTiter-96 assay; assay type: functional, cell-based
HeLa [7] = experiment: Cytotoxicity against human HeLa cells assessed as reduction in cell viability incubated for 72 hrs in presence of TTR by CellTiter-96 assay; assay type: functional, cell-based
Transthyretin [8] = target: T1, Transthyretin (Homo sapiens, UniProt P02766); experiment: Binding affinity to human serum TTR assessed as target occupancy incubated for 6 hrs by fluorescence polarization assay
[9] = Stability of compound in PBS at 37 degreeC incubated for 24 hrs by RP-HPLC analysis; assay type: physicochemical; details: buffer
[10] = Stability of compound in human serum at 37 degreeC incubated for 24 hrs by RP-HPLC analysis; assay type: ADME, cell-free
[11] = Stability of compound in mouse serum at 37 degreeC incubated for 24 hrs by RP-HPLC analysis; assay type: ADME, cell-free; details: read-out: Stability
[12] = Toxicity in CD-1 mouse assessed as body weight loss at 2.5 mg/kg,ip administrated upto 20 days for every 5 days; assay type: organism-based; details: in vivo, 480 h, time < 20 day
[13] = Drug concentration in CD-1 mouse at 2.5 mg/kg,ip measured upto 24 hrs by LC-MS/MS analysis; assay type: ADME, organism-based; details: in vivo
[14] = Drug metabolism in human liver assessed as cathepsin B mediated hydrolysis MMAE metabolite formation measured after 15 mins by HPLC/LC-MS/MS analysis; assay type: ADME, tissue-based; details: 0.25 h
[15] = Toxicity in mouse assessed as increase in body weight at 6.2 mg/kg,ip measured upto 21 days for every 3 days; assay type: organism-based; details: in vivo, 504 h, time < 21 day
[16] = Toxicity in mouse assessed as maximum tolerated dose administered intraperitoneally measured upto 21 days for every 3 days; details: in vivo, route ip, time < 21 day
[17] = Toxicity in mouse assessed as reduction in body weight at 20 mg/kg,ip measured for 21 days by every 3 days; assay type: organism-based; details: in vivo, 504 h, time 21 day
[18] = Toxicity in mouse assessed as reduction in body weight at 40 mg/kg,ip measured upto 21 days for every 3 days; assay type: organism-based; details: in vivo, 504 h, time < 21 day
[19] = Toxicity in mouse xenografted with human LNCaP cells assessed as change in body weight at 10 mg/kg,ip administrated upto 35 days for every 5 days; assay type: organism-based; details: in vivo, 840 h, time < 35 day
[20] = Drug concentration in CD-1 mouse at 3 mg/kg,ip measured upto 24 hrs by LC-MS/MS analysis; assay type: ADME, organism-based; details: in vivo
[21] = target: Transthyretin (Mus musculus) (UniProt P07309); experiment: Binding affinity to mouse serum TTR assessed as target occupancy incubated for 1 hrs by fluorescence polarization assay
Transthyretin [22] = target: T1, Transthyretin; experiment: Binding affinity to human TTR incubated for 20 mins by fluorescence polarization assay
[23] = Toxicity in CD-1 mouse assessed as body weight loss at 3.1 mg/kg,ip administrated upto 20 days for every 5 days; assay type: organism-based; details: in vivo, 480 h, time < 20 day
[24] = Drug metabolism in human liver assessed as cathepsin B mediated hydrolysis MMAE metabolite formation measured after 30 mins by HPLC/LC-MS/MS analysis; assay type: ADME, tissue-based; details: 0.5 h
LNCaP [25] = experiment: Antitumor activity against human LNCaP cells xenografted mouse assessed as reduction in tumor growth at 3.1 mg/kg,ip administrated upto 35 days for every 5 days; assay type: functional, organism-based; details: time <= 35.0 day
[26] = Toxicity in mouse xenografted with human LNCaP cells assessed as increase in body weight at 3.1 mg/kg,ip administrated upto 35 days for every 5 days; assay type: organism-based; details: in vivo, 840 h, time < 35 day
[27] = Toxicity in mouse xenografted with human LNCaP cells assessed as mouse survival time at 3.1 mg/kg,ip administrated upto 35 days for every 5 days; assay type: organism-based; details: in vivo, 840 h, time < 35 day
LNCaP [28] = experiment: Antitumor activity against human LNCaP cells xenografted mouse assessed as reduction in tumor relapse at 3.1 mg/kg,ip administrated upto 35 days for every 5 days; assay type: functional, organism-based; details: time <= 35.0 day

CC[C@H](C)[C@@H]([C@@H](CC(=O)N1CCC[C@H]1[C@H](OC)[C@@H](C)C(=O)N[C@H](C)[C@@H](O)c1ccccc1)OC)N(C)C(=O)[C@@H](NC(=O)[C@@H](NC)C(C)C)C(C)C (H-[NMeV]V[Dil][Dolaproine]-X1)
Activity [1]: Toxic
IC50 (LNCaP [2]): 0.00079 µM
IC50 (LNCaP [3]): 0.00071 µM
IC50 (DU-145 [4]): 0.00055 µM
IC50 (DU-145 [5]): 0.00062 µM
IC50 (HeLa [6]): 0.0011 µM
IC50 (HeLa [7]): 0.001 µM

O=C(O)c1ccc2nc(-c3cc(Cl)cc(Cl)c3)oc2c1
Activity (Transthyretin [8]): 49.5%

C#CCC(NC(=O)CCSC1CC(=O)N(CCCCCC(=O)N[C@@H](CCC(=O)O)C(=O)N[C@H](C(=O)N[C@@H](CCCNC(N)=O)C(=O)Nc2ccc(COC(=O)N(C)[C@H](C(=O)N[C@H](C(=O)N(C)[C@@H]([C@@H](C)CC)[C@@H](CC(=O)N3CCC[C@H]3[C@H](OC)[C@@H](C)C(=O)N[C@H](C)[C@@H](O)c3ccccc3)OC)C(C)C)C(C)C)cc2)C(C)C)C1=O)C(=O)NCCCCCC(=O)NCCCC[C@H](NC(=O)N[C@@H](CCC(=O)O)C(=O)O)C(=O)O (some centres not stated)
Stability [9]: Stable
Stability [10]: Stable
remaining at 24 h [11]: 64.1%
Activity [12]: Non-Toxic
Drug uptake [13]: Active
Drug metabolism [14]: Metabolite_Detected
IC50 (LNCaP [2]): 0.00083 µM
IC50 (LNCaP [3]): 0.00081 µM
IC50 (DU-145 [4]): 1.05 µM
IC50 (DU-145 [5]): 1.02 µM
IC50 (HeLa [6]): 0.551 µM
IC50 (HeLa [7]): 0.525 µM
Activity [15]: Toxic
MTD at 504 h [16]: 5 mg/kg

CC(=O)O[C@@]12CO[C@@H]1C[C@H](O)[C@@]1(C)C(=O)[C@H](O)C3=C(C)[C@@H](OC(=O)[C@H](O)[C@@H](NC(=O)OC(C)(C)C)c4ccccc4)C[C@@](O)([C@@H](OC(=O)c4ccccc4)[C@H]21)C3(C)C [DOCETAXEL ANHYDROUS]
Activity [17]: Toxic
Activity [18]: Toxic
Activity [19]: Non-Toxic

CC[C@H](C)[C@@H]([C@@H](CC(=O)N1CCC[C@H]1[C@H](OC)[C@@H](C)C(=O)N[C@H](C)[C@@H](O)c1ccccc1)OC)N(C)C(=O)[C@@H](NC(=O)[C@H](C(C)C)N(C)C(=O)OCc1ccc(NC(=O)[C@H](CCCNC(N)=O)NC(=O)[C@@H](NC(=O)[C@H](CCC(=O)O)NC(=O)CCCCCN2C(=O)CC(SCCC(=O)NC(Cc3cn(CCOCCOCCNCCCCCCOc4cc(OCCCc5c(C)n[nH]c5C)cc(C(=O)O)c4)nn3)C(=O)NCCCCCC(=O)NCCCC[C@H](NC(=O)N[C@@H](CCC(=O)O)C(=O)O)C(=O)O)C2=O)C(C)C)cc1)C(C)C (some centres not stated)
Drug uptake [20]: Active
Activity [21]: Active
Activity (Transthyretin [8]): 67.5%
Kd (Transthyretin [22]): 0.448 µM
Activity [23]: Non-Toxic
Stability [9]: Stable
Stability [10]: Stable
remaining at 24 h [11]: 71.3%
Drug metabolism [24]: Metabolite_Detected
IC50 (LNCaP [2]): 0.00102 µM
IC50 (LNCaP [3]): 0.00119 µM
IC50 (DU-145 [4]): 0.421 µM
IC50 (DU-145 [5]): 1.25 µM
IC50 (HeLa [6]): 0.259 µM
IC50 (HeLa [7]): 0.816 µM
MTD at 504 h [16]: 3.1 mg/kg
Activity (LNCaP [25]): Active
Activity [26]: Toxic
Survival [27]: 100 days
Activity (LNCaP [28]): Active

Cc1n[nH]c(C)c1CCCOc1cc(OCCCCCCNCCOCCOCCN=[N+]=[N-])cc(C(=O)O)c1
Activity (Transthyretin [8]): 80.7%
Kd (Transthyretin [22]): 0.0743 µM

Source: ChEMBL document CHEMBL5150030, “Enhancing the Safety and Efficacy of PSMA-Based Small-Molecule Drug Conjugates by Linker Stabilization and Conjugation to Transthyretin Binding Ligand” (J Med Chem, 2022)
